Measurements from ChEMBL document CHEMBL5113489, “Design, synthesis, and biological evaluation of membrane-active honokiol derivatives as potent antibacterial agents” (Eur J Med Chem, 2022).
Calls of active or inactive are those of the source. The calls are words filed in the database; no cut-off is given here.

Legend:
Staphylococcus aureus [1] = assay: Antibacterial activity against Staphylococcus aureus ATCC 31007; type: functional
Staphylococcus aureus [2] = assay: Antibacterial activity against Staphylococcus aureus ATCC 43300; type: functional
Bacillus subtilis = assay: Antibacterial activity against Bacillus subtilis ATCC 9372; type: functional
[3] = Hemolytic activity in sheep RBC; type: toxicity, cell-based, Ovis aries, Erythrocyte; conditions: sheep red blood cells (erythrocytes)
[4] = Selectivity index, ratio of HC50 for hemolytic activity in sheep RBC to MIC for antibacterial activity against Staphylococcus aureus ATCC 43300; type: toxicity; conditions: sheep red blood cells (erythrocytes)
Staphylococcus aureus [5] = assay: Antibacterial activity against Staphylococcus aureus ATCC 43300 assessed as bacterial killing at 4 x MIC incubated for 9 hrs and measured by time-kill kinetic study; type: functional
Escherichia coli [6] = assay: Antibacterial activity against Escherichia coli ATCC 25922 assessed as bacterial killing at 4 x MIC incubated for 9 hrs and measured by time-kill kinetic study; type: functional
Staphylococcus aureus [7] = assay: Antibacterial activity against Staphylococcus aureus ATCC 43300 assessed as bacterial killing at 8XMIC incubated for 3 hrs and measured by time-kill kinetic study; type: functional
Escherichia coli [8] = assay: Antibacterial activity against Escherichia coli ATCC 25922 assessed as bacterial killing at 8XMIC incubated for 3 hrs and measured by time-kill kinetic study; type: functional
Escherichia coli [9] = assay: Antibacterial activity against Escherichia coli ATCC 25922 assessed as resistance development by measuring fold increase in MIC; type: functional
Staphylococcus aureus [10] = assay: Anti-biofilm activity in Staphylococcus aureus ATCC 43300 assessed as inhibition of biofilm formation at 0.5 ug/ml; type: functional
Staphylococcus aureus [11] = assay: Anti-biofilm activity in Staphylococcus aureus ATCC 43300 assessed as inhibition of biofilm formation at 1 ug/ml; type: functional
Staphylococcus aureus [12] = assay: Anti-biofilm activity in Staphylococcus aureus ATCC 43300 assessed as inhibition of biofilm formation at 4 ug/ml; type: functional
Staphylococcus aureus [13] = assay: Anti-biofilm activity in Staphylococcus aureus ATCC 43300 assessed as inhibition of biofilm formation at 8 ug/ml; type: functional
Escherichia coli [14] = assay: Anti-biofilm activity in Escherichia coli ATCC 25922 assessed as inhibition of biofilm formation at 2 ug/ml; type: functional
Escherichia coli [15] = assay: Anti-biofilm activity in Escherichia coli ATCC 25922 assessed as inhibition of biofilm formation at 4 ug/ml; type: functional
Escherichia coli [16] = assay: Anti-biofilm activity in Escherichia coli ATCC 25922 assessed as inhibition of biofilm formation at 16 ug/ml; type: functional
Staphylococcus aureus [17] = assay: Anti-biofilm activity in Staphylococcus aureus ATCC 43300 assessed as disruption rate of biofilm at 1 ug/ml measured by crystal violet staining method; type: functional; conditions: dose 1 µg/ml
Staphylococcus aureus [18] = assay: Anti-biofilm activity in Staphylococcus aureus ATCC 43300 assessed as disruption rate of biofilm at 2 ug/ml measured by crystal violet staining method; type: functional; conditions: dose 2 µg/ml
Staphylococcus aureus [19] = assay: Anti-biofilm activity in Staphylococcus aureus ATCC 43300 assessed as disruption rate of biofilm at 8 ug/ml measured by crystal violet staining method; type: functional; conditions: dose 8 µg/ml
Escherichia coli [20] = assay: Anti-biofilm activity in Escherichia coli ATCC 25922 assessed as disruption rate of biofilm at 2 ug/ml measured by crystal violet staining method; type: functional; conditions: dose 2 µg/ml
Escherichia coli [21] = assay: Anti-biofilm activity in Escherichia coli ATCC 25922 assessed as disruption rate of biofilm at 4 ug/ml measured by crystal violet staining method; type: functional; conditions: dose 4 µg/ml
Escherichia coli [22] = assay: Anti-biofilm activity in Escherichia coli ATCC 25922 assessed as disruption rate of biofilm at 8 ug/ml measured by crystal violet staining method; type: functional; conditions: dose 8 µg/ml
Escherichia coli [23] = assay: Anti-biofilm activity in Escherichia coli ATCC 25922 assessed as disruption rate of biofilm at 32 ug/ml measured by crystal violet staining method; type: functional; conditions: dose 32 µg/ml
Cell membrane [24] = assay: Induction of cytoplasmic membrane depolarization in Staphylococcus aureus ATCC 43300 assessed as increase in fluorescence intensity at 1 to 8 times MIC measured by DiSC3-5 dye based fluorescence method; type: subcellular
Cell membrane [25] = assay: Induction of cytoplasmic membrane depolarization in Escherichia coli ATCC 25922 assessed as increase in fluorescence intensity at 1 to 8 times MIC measured by DiSC3-5 dye based fluorescence method; type: subcellular
Cell membrane [26] = assay: Induction of inner membrane permeabilization in Staphylococcus aureus ATCC 43300 assessed as increase in PI uptake by measuring increase in fluorescence intensity at 1 to 8 ug/ml by propidium iodide staining based fluorescence analysis; type: subcellular; conditions: dose 1-8 µg/ml
Cell membrane [27] = assay: Induction of inner membrane permeabilization in Escherichia coli ATCC 25922 assessed as increase in PI uptake by measuring increase in fluorescence intensity at 4 to 32 ug/ml by propidium iodide staining based fluorescence analysis; type: subcellular; conditions: dose 4-32 µg/ml
Cell membrane [28] = assay: Induction of outer membrane permeabilization to NPN in Escherichia coli ATCC 25922 cells assessed as increase in fluorescence intensity at 4 to 32 ug/ml by NPN-probe based fluorescence spectrophotometric analysis; type: subcellular; conditions: dose 4-32 µg/ml
Cell membrane [29] = assay: Induction of cell membrane disruption in Staphylococcus aureus ATCC 43300 assessed as increase in fluorescence intensity at 8 times MIC measured after 2 hrs by PI staining based fluorescence microscopic analysis; type: subcellular
Cell membrane [30] = assay: Induction of cell membrane disruption in Escherichia coli ATCC 25922 assessed as increase in fluorescence intensity at 8 times MIC measured after 2 hrs by PI staining based fluorescence microscopic analysis; type: subcellular
Cell membrane [31] = assay: Induction of cell membrane disruption in Staphylococcus aureus ATCC 43300 assessed as increase in fluorescence intensity at 8 times MIC measured after 2 hrs by DAPI staining based fluorescence microscopic analysis
Cell membrane [32] = assay: Induction of cell membrane disruption in Escherichia coli ATCC 25922 assessed as increase in fluorescence intensity at 8 times MIC measured after 2 hrs by DAPI staining based fluorescence microscopic analysis
[33] = Cytotoxicity against human HepG2 cells assessed as cell viability at 4 ug/ml measured by SRB assay; type: toxicity, cell-based; conditions: at 4 µg/mL, read-out: Activity
[34] = Cytotoxicity against human HepG2 cells assessed as cell viability at 8 ug/ml measured by SRB assay; type: toxicity, cell-based; conditions: at 8 µg/mL, read-out: Activity
[35] = Cytotoxicity against human HepG2 cells assessed as cell viability at 16 ug/ml measured by SRB assay; type: toxicity, cell-based; conditions: at 16 µg/mL, read-out: Activity
[36] = Cytotoxicity against human HepG2 cells assessed as cell viability at 32 ug/ml measured by SRB assay; type: toxicity, cell-based; conditions: at 32 µg/mL, read-out: Activity
[37] = Cytotoxicity against human HepG2 cells assessed as cell viability at 128 ug/ml measured by SRB assay; type: toxicity, cell-based; conditions: dose 128 µg/ml, read-out: Activity
Staphylococcus aureus [38] = assay: In vivo antibacterial activity against Staphylococcus aureus ATCC 43300 in septicemia mouse model assessed as reduction in bacterial load in spleen at 10 mg/kg, administered every 12 hrs for 3 days; type: functional; design: scale not given: the % may be the effect or the level left
[39] = Toxicity in septicemia mouse model infected with Staphylococcus aureus ATCC 43300 assessed as effect on liver at 5 to 10 mg/kg, administered every 12 hrs for 3 days measured by histopathological analysis; type: organism-based; conditions: in vivo, dose 5-10 mg/kg

SMILES: C=CCc1ccc(OCCC[N+](C)(C)CCCCCC)c(-c2ccc(OCCC[N+](C)(C)CCCCCC)c(CC=C)c2)c1.[Br-].[Br-]
- MIC (Staphylococcus aureus [1]): 0.5 µg/mL
- MIC (Staphylococcus aureus [2]): 1 µg/mL
- MIC (Bacillus subtilis): 1 µg/mL
- HC50 [3]: 410 µg/mL
- selectivity ratio [4]: 410
- Activity (Staphylococcus aureus [5]): >=99%
- Activity (Escherichia coli [6]): >=99%
- Activity (Staphylococcus aureus [7]): 100%
- Activity (Escherichia coli [8]): 100%
- fold change (FC) (Escherichia coli [9]): <4
- inhibition at 0.5 µg/mL (Staphylococcus aureus [10]): 9.72%
- inhibition at 1 µg/mL (Staphylococcus aureus [11]): 12.9%
- inhibition at 4 µg/mL (Staphylococcus aureus [12]): 91.2%
- inhibition at 8 µg/mL (Staphylococcus aureus [13]): 93.7%
- inhibition at 2 µg/mL (Escherichia coli [14]): 24.3%
- inhibition at 4 µg/mL (Escherichia coli [15]): 35.3%
- inhibition at 16 µg/mL (Escherichia coli [16]): 65.4%
- Activity (Staphylococcus aureus [17]): 9.59%
- Activity (Staphylococcus aureus [18]): 11.43%
- Activity (Staphylococcus aureus [19]): 28.56%
- Activity (Escherichia coli [20]): 15.1%
- Activity (Escherichia coli [21]): 27.99%
- Activity (Escherichia coli [22]): 46.42%
- Activity (Escherichia coli [23]): 57.36%
- Activity (Cell membrane [24]): Active
- Activity (Cell membrane [25]): Active
- Activity (Cell membrane [26]): Active
- Activity (Cell membrane [27]): Active
- Activity (Cell membrane [28]): Active
- Activity (Cell membrane [29]): Active
- Activity (Cell membrane [30]): Active
- Activity (Cell membrane [31]): Active
- Activity (Cell membrane [32]): Active
- viability at 4 ug/ml [33]: 94.7%
- viability at 8 ug/ml [34]: 90.3%
- viability at 16 ug/ml [35]: 85.4%
- viability at 32 ug/ml [36]: 68.1%
- viability at 128 ug/ml [37]: 36.6%
- Activity (Staphylococcus aureus [38]): 99.3%
- Activity [39]: Non-Toxic
